In paper PMC7044277 (Nature Communications, 2020):
Several values for one entry are separate records, joined by “and”; a condition that tells them apart may be missing. Identical values can stand only once.

Columns and labels:
Assay in all cases: β-arrestin2 recruitment (Tango)
Type in all cases: cell-based
5HT2C = molecular target: T1, 5HT2C (Homo sapiens, UniProt P28335); settings: Fig_S10m; for β-arrestin2 recruitment response (dose-response source data, replicate values): drug alone; for β-arrestin2 recruitment response in presence of serotonin (replicate values): +10μM serotonin
T1 sequence (P28335 33-458): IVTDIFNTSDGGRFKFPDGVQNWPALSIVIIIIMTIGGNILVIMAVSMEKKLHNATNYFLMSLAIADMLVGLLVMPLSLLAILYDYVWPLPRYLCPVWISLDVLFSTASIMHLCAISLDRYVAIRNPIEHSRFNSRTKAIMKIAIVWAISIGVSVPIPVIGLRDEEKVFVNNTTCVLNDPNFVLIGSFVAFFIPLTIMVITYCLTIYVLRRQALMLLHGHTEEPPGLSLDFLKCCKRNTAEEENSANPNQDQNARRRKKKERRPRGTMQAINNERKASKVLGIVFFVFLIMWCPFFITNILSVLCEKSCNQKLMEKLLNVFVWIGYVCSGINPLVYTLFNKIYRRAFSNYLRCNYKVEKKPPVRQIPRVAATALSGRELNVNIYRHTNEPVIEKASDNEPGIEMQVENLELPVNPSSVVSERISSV

5HT6 = molecular target: T2, 5HT6 (Homo sapiens, UniProt P50406); settings: Fig_S10p, agonist mode
T2 construct: expressed in transfected cells; host or cells: HTLA cells expressing TEV-fused β-arrestin2
T2 sequence (P50406 whole entry, the tested form may be a part): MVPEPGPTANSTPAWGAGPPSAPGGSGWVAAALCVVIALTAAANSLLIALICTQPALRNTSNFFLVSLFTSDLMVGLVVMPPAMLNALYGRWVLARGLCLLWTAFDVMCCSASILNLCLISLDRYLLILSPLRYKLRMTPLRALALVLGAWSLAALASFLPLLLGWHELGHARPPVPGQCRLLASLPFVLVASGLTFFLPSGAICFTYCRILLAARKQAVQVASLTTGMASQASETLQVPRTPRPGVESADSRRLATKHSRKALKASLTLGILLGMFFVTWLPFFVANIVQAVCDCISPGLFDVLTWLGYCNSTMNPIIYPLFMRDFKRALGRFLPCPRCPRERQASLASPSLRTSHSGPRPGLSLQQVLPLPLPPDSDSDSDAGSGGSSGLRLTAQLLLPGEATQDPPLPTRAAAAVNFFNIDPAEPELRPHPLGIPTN

5HT7A = molecular target: T3, 5HT7A (Homo sapiens, UniProt P34969); settings: for β-arrestin2 recruitment response, replicate points of concentration-response curve: Fig_S10q, agonist mode
T3 construct: expressed in transfected cells; host or cells: HTLA cells expressing TEV-fused β-arrestin2
T3 sequence (P34969 1-445 isoform P34969-2): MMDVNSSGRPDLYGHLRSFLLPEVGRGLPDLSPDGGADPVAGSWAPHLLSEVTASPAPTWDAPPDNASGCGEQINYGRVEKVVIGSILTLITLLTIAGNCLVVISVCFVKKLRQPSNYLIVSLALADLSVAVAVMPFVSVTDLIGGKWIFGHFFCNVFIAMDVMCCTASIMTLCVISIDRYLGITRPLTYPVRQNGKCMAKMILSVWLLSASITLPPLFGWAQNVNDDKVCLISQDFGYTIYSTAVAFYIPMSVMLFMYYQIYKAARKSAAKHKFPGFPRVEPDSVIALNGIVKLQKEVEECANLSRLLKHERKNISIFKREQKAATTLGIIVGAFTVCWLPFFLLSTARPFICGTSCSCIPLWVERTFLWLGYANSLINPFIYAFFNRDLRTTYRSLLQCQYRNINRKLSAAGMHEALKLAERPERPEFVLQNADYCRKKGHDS

SMILES: CCOc1cccc2cc([C@@H](C)NCC3(O)CCCCC3)oc12 [O4RE6]
- β-arrestin2 recruitment response (dose-response source data, replicate values) (5HT2C; Log[Drug] -6.52): -0.8494 and -0.7143 and 0.1419 and 1.691 and -0.2222 and -0.8824 and 6.685 and 2.505 and 2.238
- β-arrestin2 recruitment response in presence of serotonin (replicate values) (5HT2C; Log[Drug] -7): 78.7809 and 65.1211 and 66.7181 and 78.276 and 64.6889 and 65.4492 and 69.2492 and 67.696 and 63.7064
- β-arrestin2 recruitment response (dose-response source data, replicate values) (5HT2C; Log[Drug] -7): -1.487 and -0.5714 and -1.709 and 1.211 and 0.5059 and 0.1139 and 0.4054 and 1.8599 and -0.4067
- β-arrestin2 recruitment response in presence of serotonin (replicate values) (5HT2C; Log[Drug] -7.52): 60.5159 and 63.0454 and 62.4237 and 65.5364 and 59.1349 and 50.606 and 95.9761 and 69.8099 and 82.5107
- β-arrestin2 recruitment response (dose-response source data, replicate values) (5HT2C; Log[Drug] -7.52): 4.965 and 0.04923 and -3.23 and 2.115 and 1.39 and -0.6014 and 1.1728 and 0.6792 and -0.974
- β-arrestin2 recruitment response in presence of serotonin (replicate values) (5HT2C; Log[Drug] -8): 71.3267 and 75.4455 and 66.4208 and 75.6262 and 64.4484 and 59.5931 and 70.3904 and 75.8595 and 73.1664
- β-arrestin2 recruitment response (dose-response source data, replicate values) (5HT2C; Log[Drug] -8): 1.2751 and -0.6351 and 2.803 and -0.01928 and -0.2938 and -0.4398 and 3.201 and 7.224 and -1.315
- β-arrestin2 recruitment response in presence of serotonin (replicate values) (5HT2C; Log[Drug] -8.52): 58.0598 and 61.1071 and 60.9165 and 75.2534 and 73.2353 and 72.7725 and 80.2506 and 68.3081 and 73.8075
- β-arrestin2 recruitment response (dose-response source data, replicate values) (5HT2C; Log[Drug] -8.52): 1.412 and -1.374 and -2.167 and -0.9173 and -0.6234 and -0.001836 and -1.0517 and 2.438 and -0.7292
- β-arrestin2 recruitment response in presence of serotonin (replicate values) (5HT2C; Log[Drug] -9): 62.3446 and 66.0878 and 69.0787 and 68.4846 and 71.5679 and 75.9558 and 57.0421 and 71.8594 and 68.3133
- β-arrestin2 recruitment response (dose-response source data, replicate values) (5HT2C; Log[Drug] -9): 8.947 and 0.2944 and -1.358 and 0.06794 and 1.215 and 1.023 and 1.659 and -1.676 and 1.911
- β-arrestin2 recruitment response in presence of serotonin (replicate values) (5HT2C; Log[Drug] -9.52): 55.4527 and 57.9556 and 67.8156 and 72.3217 and 60.5213 and 59.5912 and 64.5922 and 60.3604 and 70.7827
- β-arrestin2 recruitment response (dose-response source data, replicate values) (5HT2C; Log[Drug] -9.52): 0.7577 and 0.9406 and -1.056 and 0.774 and -0.8934 and -0.3755 and 4.117 and -0.7424 and 3.815
- β-arrestin2 recruitment response, replicate points of concentration-response curve (5HT6; Log[Drug] -6): 0.6179
- β-arrestin2 recruitment response, replicate points of concentration-response curve (5HT6; Log[Drug] -6.52): 2.255 and 6.005 and -0.9593 and 0.5245 and -8.852 and -1.095 and 3.803 and 14.7296 and 1.5314
- β-arrestin2 recruitment response, replicate points of concentration-response curve (5HT6; Log[Drug] -7): 2.737 and -0.8021 and 0.3035 and -9.828 and -11.4107 and -3.313 and -1.206 and -3.514 and 45.5574
- β-arrestin2 recruitment response, replicate points of concentration-response curve (5HT6; Log[Drug] -7.52): 9.506 and 14.1402 and 17.6522 and -10.6377 and -5.208 and -2.549 and -1.295 and 2.071 and -1.605
- β-arrestin2 recruitment response, replicate points of concentration-response curve (5HT6; Log[Drug] -8): -0.645 and 1.165 and 0.2927 and -3.147 and 13.2695 and -12.1837 and -4.853 and 0.614 and -2.656
- β-arrestin2 recruitment response, replicate points of concentration-response curve (5HT6; Log[Drug] -8.52): -0.1626 and 4.9103 and -0.3035 and -9.285 and -10.3985 and -13.5456 and -5.689 and -5.904 and -4.713
- β-arrestin2 recruitment response, replicate points of concentration-response curve (5HT6; Log[Drug] -9): 5.962 and 3.36 and 0.775 and -2.264 and 6.672 and -11.4475 and -4.468 and 0.05179 and -2.649
- β-arrestin2 recruitment response, replicate points of concentration-response curve (5HT6; Log[Drug] -9.52): 0.7804 and -0.09756 and 1.653 and -9.57 and -13.2511 and -10.2512 and -0.9174 and -5.319 and -2.049
- β-arrestin2 recruitment response, replicate points of concentration-response curve (5HT6; Log[Drug] -10): -1.848 and 4.038 and 4.894 and -4.813 and -13.9689 and -2.9539 and 13.3388 and -5.371 and 2.353
- β-arrestin2 recruitment response, replicate points of concentration-response curve (5HT6; Log[Drug] -10.52): 1.577 and 1.859 and -0.3143 and -10.7113 and -10.242 and -8.8801 and -0.04439 and -4.439 and 2.981
- β-arrestin2 recruitment response, replicate points of concentration-response curve (5HT6; Log[Drug] -11): -1.149 and 2.054 and 0.1355 and -7.003 and -10.3432 and 9.598 and -3.27 and -3.4993 and -5.608
- β-arrestin2 recruitment response, replicate points of concentration-response curve (5HT6; Log[Drug] -11.52): -1.182 and 12.7148 and 3.068 and 1.2699 and -8.8985 and -8.135 and 6.251 and -5.941 and -5.608
- concentration at which the receptor is activated (5HT7A; 5HT7A, agonist activity only at high concentrations): over 1 μM
- β-arrestin2 recruitment response, replicate points of concentration-response curve (5HT7A; Log[Drug] -8.52): -12.5786 and -8.044 and 1.071 and -9.7421 and 32.4405 and 49.1467 and -14.2149 and 16.5223 and -11.2331 and 4.354 and 35.2448 and 10.2419
- β-arrestin2 recruitment response, replicate points of concentration-response curve (5HT7A; Log[Drug] -9): 10.8788 and 4.459 and -14.1005 and -17.9842 and -16.1246 and -21.1449 and -7.127 and 62.1289 and 35.3983 and -32.9912 and 26.9263 and -33.8761
- β-arrestin2 recruitment response, replicate points of concentration-response curve (5HT7A; Log[Drug] -9.52): -17.7926 and -13.0806 and -8.59 and 76.7429 and -5.732 and -9.941 and -9.587 and 8.198 and -49.3687 and 45.8761
- β-arrestin2 recruitment response, replicate points of concentration-response curve (5HT7A; Log[Drug] -10): 8.776 and -5.649 and -4.779 and -6.75 and 22.3693 and -13.4231 and 66.8562 and 10.9818 and 67.3785 and -0.5782 and 14.0649 and -7.044
- β-arrestin2 recruitment response, replicate points of concentration-response curve (5HT7A; Log[Drug] -10.52): 3.024 and -18.69 and -0.8855 and -5.258 and -47.1876 and -14.9154 and -10.2215 and 7.524 and 59.795 and 14.1475 and 8.932 and -11.705
- β-arrestin2 recruitment response, replicate points of concentration-response curve (5HT7A; Log[Drug] -11): 2.617 and -4.127 and -1.973 and 44.555 and 24.1984 and -23.678 and 55.762 and 41.0711 and -15.762 and -13.3333 and -38.2183 and -14.0059
- β-arrestin2 recruitment response, replicate points of concentration-response curve (5HT7A; Log[Drug] -11.52): 10.0328 and 5.163 and -15.1797 and -41.8076 and 36.1292 and 53.417 and 13.0909 and -3.233 and 13.8777 and 47.469 and -14.7611 and -41.4631
- β-arrestin2 recruitment response, replicate points of concentration-response curve (5HT7A; Log[Drug] -12): -10.6692 and 6.787 and -7.578 and 7.025 and -23.6244 and 50.44 and -4.476 and 12.3769 and -7.901 and 14.5015 and 35.0914 and -7.516
